Data on one compound can be found in patent publication US20190231771A1, “METHODS FOR TREATMENT AND PREVENTION OF OPIOID INDUCED CONSTIPATION USING ORAL COMPOSITIONS OF METHYLNALTREXONE” (Salix Pharmaceuticals, Ltd., priority 2011, published 2019).

The nature of data set [1]: Study A: single and multiple dose pharmacokinetics after subcutaneous 12 mg methylnaltrexone. The note with it: for AUC(0-t) / Cmax: sc, 12 mg; for AUC(0-t): read-out: AUC0-24; for Cmax: read-out: Cmax. The format is in vivo, human. The method, then:
Presented herein is a clinical pharmacokinetics study, Study C, as well as Studies A and B. Study A investigated the single and multiple dose pharmacokinetics of methylnaltrexone (MNTX) and its metabolites (M2: methylnaltrexone sulfate; M4: 6α-methylnaltrexol; and M5: 6β-methylnaltrexol) following the subcutaneous administration of 12 mg methylnaltrexone. In Study B, the single and multiple dose pharmacokinetics of methylnaltrexone (MNTX) and its metabolites (M2, M4, and M5) were examined following a 20-minute short intravenous infusion of 24 mg of methylnaltrexone (MNTX).
Pharmacokinetic parameters included Cmax, AUCt, AUCinf, tmax, t1/2, % Re24, accumulation factor (R) as defined below and metabolite/parent drug ratio.
R=Accumulation Factor(based on AUC0-24(ng·h/mL):Day 7 AUC AUC0-24/Day 1 AUC0-24
Metabolite-Parent Drug ratio(based on ng·h/mL)(%)=100*(Metabolite AUC24/MNTX AUC24)
Note: AUCinf was used in place of AUC AUC0-24 for R and Metabolite-Parent Drug ratio computations following IV administration.

The conditions of data set [2]: rats; cited from earlier work.
The conditions of data set [3]: Yuan et al. 2005 J Clin Pharm 45:538-546; cited from earlier work.
For data set [4] the following is noted: cited from earlier work.
The mark [5] stands for this setting: human, plasma, 12 mg SC Injection, Day 1, mean.
[6] abbreviates: human, plasma, 12 mg SC Injection, Day 7, mean.
Where [7] appears, read: orally administered MNTX, other studies.

SMILES strings stand for the structures. Read-outs that look alike come from different tables or passages of the source.

Consider `C[N@+]1(CC2CC2)CC[C@]23c4c5ccc(O)c4O[C@H]2C(=O)CC[C@@]3(O)[C@H]1C5.[Br-]` [MNTX, (R)—N-(cyclopropylmethyl) noroxymorphone methobromide], for which the AUCinf in data set [1] (12 mg SC Injection, Day 7, mean) worked out at 223.0 ng·h/mL. Further, in data set [1] (12 mg SC Injection, AUC0-24 on Day 7/AUC0-24 on Day 1), the “R (SC), accumulation factor” value came out at 1.05. In addition, in data set [1] (setting [5]), the AUC(0-t) worked out at 218 ng·h/mL, the peak concentration (Cmax) was 140 ng/mL and the AUC(0-inf) is 223 ng·h/mL. For the same compound, in data set [1] (setting [6]), the AUC(0-t) is 223 ng·h/mL and the Cmax was determined as 119 ng/mL. For the same compound, the bioavailability in data set [1] (human, plasma, subcutaneous, 12 mg SC vs 24 mg IV infusion, cross-study, read-out: bioavailability of subcutaneous injection relative to short-term infusion) turned out to be 112%. In addition, the Tmax in data set [1] (human, plasma, 12 mg SC Injection, Day 1, median, read-out: Tmax) was found to be 0.25 h. The compound also had a half-life in data set [1] (human, plasma, 12 mg SC Injection, day not given, harmonic mean) of 5.33 h. Moreover, in data set [2], the “estimated bioavailability after oral administration” value is on record as “less than 1%”. The “dose recovered in urine following IV administration” value in data set [3] is listed as 31.5%-49.6%. Further, in data set [4] (setting [7]), the “bioavailability (in words)” value is on record as “low bioavailability”, the “plasma protein binding (in words)” value is given as “low plasma protein binding” and the “tissue distribution (in words)” value is on record as “limited tissue distribution outside the GI tract”. In data set [4] (prior study), the “increase of systemic absorption by fasting” value is recorded as “approximately 25%”.
